Reference: ChEMBL document CHEMBL1124642 (1989)
Active and inactive are the calls of the source. No cut-off for these calls is given here.

Tests used:
Cavia porcellus = species: Cavia porcellus; experiment: Effective dose for guinea pig ileum contractions; assay type: functional; details: for EC50: read-out: ED50 (the source's name)
[1] = biological target: Muscarinic acetylcholine receptor (Homo sapiens) (UniProt P20309+P08173+P11229+P08172+P08912); experiment: Tested in vitro for agonistic effect on Muscarinic acetylcholine receptor of guinea pig ileum; IA = Inactive; assay type: functional, tissue-based; details: Cavia porcellus, target entry is the homologue from another species

EC50 (Cavia porcellus) [µM] | SMILES | other results
1 | CCN1C(=O)OCC1Cc1cncn1C (stereo not given) | 
 | CCN1C(=O)OCC1Cc1cn(Cc2ccccc2)c[n+]1C (stereo not given) | ED50 [1]: inactive
180 | CCN1C(=O)OCC1Cc1c[nH]cn1 (stereo not given) | 
 | CCN1C(=O)OCC1Cc1cn(Cc2ccccc2)cn1 (stereo not given) | ED50 (Cavia porcellus): inactive
14 | CCN1C(=O)OCC1Cc1cn(C)cn1 (stereo not given) | 
